Biological target: T1, GABA A α5 (Homo sapiens, UniProt P18507+P31644)
T1 construct: expressed in transfected cells; host or cells: HEK293 cells, transiently transfected; membranes prepared from cell pellets
Experiment: [3H]flumazenil competition binding, human GABA A α5β3γ2 receptors in HEK293 cell membranes
Settings: human receptor α5β3γ2 transiently transfected in HEK293; 0.5 nM [3H]flumazenil; 1 hour at 4° C.; means of two determinations; read-out: hKi GABA A α5
Experimental: The affinity of compounds at GABA A receptor subtypes was measured by competition for [3H]flumazenil (85 Ci/mmol; Roche) binding to HEK293 cells expressing rat (stably transfected) or human (transiently transfected) receptors of composition α1β3γ2, α2β3γ2, α3β3γ2 and α5β3γ2.
Cell pellets were suspended in Krebs-tris buffer (4.8 mM KCl, 1.2 mM CaCl2, 1.2 mM MgCl2, 120 mM NaCl, 15 mM Tris; pH 7.5; binding assay buffer), homogenized by polytron for ca. 20 sec on ice and centrifuged for 60 min at 4° C. (50000 g; Sorvall, rotor: SM24=20000 rpm). The cell pellets were re-suspended in Krebs-tris buffer and homogenized by polytron for ca. 15 sec on ice. Protein was measured (Bradford method, Bio-Rad) and aliquots of 1 mL were prepared and stored at −80° C.
Assays were incubated to equilibrium for 1 hour at 4° C. and harvested onto GF/C uni-filters (Packard) by filtration using a Packard harvester and washing with ice-cold wash buffer (50 mM Tris; pH 7.5). After drying, filter-retained radioactivity was detected by liquid scintillation counting. Ki values were calculated using Excel-Fit (Microsoft) and are the means of two determinations.

Going from `CCCCc1noc(C)c1COc1cc(C(=O)NCCO)[nH]n1` [Example 33, 5-(3-Butyl-5-methyl-isoxazol-4-ylmethoxy)-2H-pyrazole-3-carboxylic acid (2-hydroxyethyl)-amide] to `CCCCc1noc(C)c1COc1cc(C(=O)NN(C)C)[nH]n1` [Example 38, 5-(3-Butyl-5-methyl-isoxazol-4-ylmethoxy)-2H-pyrazole-3-carboxylic acid N′,N′-dimethylhydrazide], the Ki rises from 20.2 nM to 38.7 nM (1.9-fold).

Compared with `CCCCc1noc(C)c1COc1cc(C(=O)N2CCOCC2)[nH]n1` [Example 36, [5-(3-Butyl-5-methyl-isoxazol-4-ylmethoxy)-2H-pyrazol-3-yl]morpholin-4-yl-methanone], `CCCCc1noc(C)c1COc1cc(C(=O)NN2CCOCC2)[nH]n1` [Example 39, 5-(3-Butyl-5-methyl-isoxazol-4-ylmethoxy)-2H-pyrazole-3-carboxylic acid morpholin-4-ylamide] is 9.2-fold lower in Ki: 53.5 nM for the first, 5.8 nM for the second. The second binds more tightly here.

`CCCCc1noc(C)c1COc1cc(C(=O)NN2CCCC2)[nH]n1` [Example 40, 5-(3-Butyl-5-methyl-isoxazol-4-ylmethoxy)-2H-pyrazole-3-carboxylic acid pyrrolidin-1-ylamide] and `CCCCc1noc(C)c1COc1cc(C(=O)NN2CCCCC2)[nH]n1` [Example 41, 5-(3-Butyl-5-methyl-isoxazol-4-ylmethoxy)-2H-pyrazole-3-carboxylic acid piperidin-1-ylamide] are within 1.5-fold of each other in Ki: 21.5 nM for the first, 27.2 nM for the second.

Going from `Cc1onc(-c2ccccc2)c1COc1cc(C(=O)NCCO)n(C)n1` [Example 42, 2-Methyl-5-(5-methyl-3-phenyl-isoxazol-4-ylmethoxy)-2H-pyrazole-3-carboxylic acid (2-hydroxy-ethyl)-amide] to `Cc1onc(-c2ccc(F)cc2)c1COc1cc(C(=O)NCCO)n(C)n1` [Example 62, 5-[3-(4-Fluoro-phenyl)-5-methyl-isoxazol-4-ylmethoxy]-2-methyl-2H-pyrazole-3-carboxylic acid (2-hydroxy-ethyl)-amide], the Ki falls from 15.9 nM to 7.1 nM (2.2-fold). The second binds more tightly here.

Compared with `Cc1onc(-c2ccccc2)c1COc1cc(C(=O)NC2CCOCC2)n(C)n1` [Example 44, 2-Methyl-5-(5-methyl-3-phenyl-isoxazol-4-ylmethoxy)-2H-pyrazole-3-carboxylic acid (tetra-hydro-pyran-4-yl)-amide], `Cc1onc(-c2ccc(F)cc2)c1COc1cc(C(=O)NC2CCOCC2)n(C)n1` [Example 53, 5-[3-(4-Fluoro-phenyl)-5-methyl-isoxazol-4-ylmethoxy]-2-methyl-2H-pyrazole-3-carboxylic acid (tetrahydro-pyran-4-yl)-amide] is 2.6-fold lower in Ki: 3.1 nM for the first, 1.2 nM for the second. The second binds more tightly here.

`Cc1onc(-c2ccccc2)c1COc1cc(C(N)=O)n(C)n1` [Example 45, 2-Methyl-5-(5-methyl-3-phenyl-isoxazol-4-ylmethoxy)-2H-pyrazole-3-carboxylic acid amide] and `Cc1onc(-c2ccccc2)c1COc1cc(C(=O)NC(C)C)n(C)n1` [Example 46, 2-Methyl-5-(5-methyl-3-phenyl-isoxazol-4-ylmethoxy)-2H-pyrazole-3-carboxylic acid isopropylamide] are within 1.5-fold of each other in Ki: 47.3 nM for the first, 40.9 nM for the second.

First: Cc1onc(-c2ccccc2)c1COc1cc(C(=O)NN(C)C)n(C)n1 [Example 47, 2-Methyl-5-(5-methyl-3-phenyl-isoxazol-4-ylmethoxy)-2H-pyrazole-3-carboxylic acid N′,N′-dimethyl-hydrazide]
Second: Cc1onc(-c2ccc(F)cc2)c1COc1cc(C(=O)NN(C)C)n(C)n1 [Example 48, 5-[3-(4-Fluoro-phenyl)-5-methyl-isoxazol-4-ylmethoxy]-2-methyl-2H-pyrazole-3-carboxylic acid N′,N′-dimethyl-hydrazide]
The Ki of the first is 2.2-fold higher: 50.3 nM for the first, 23.3 nM for the second.

First: Cc1onc(-c2ccc(F)cc2)c1COc1cc(C(=O)NN2CCCCC2)n(C)n1 [Example 49, 5-[3-(4-Fluoro-phenyl)-5-methyl-isoxazol-4-ylmethoxy]-2-methyl-2H-pyrazole-3-carboxylic acid piperidin-1-ylamide]
Second: Cc1onc(-c2ccc(F)cc2)c1COc1cc(C(=O)NN2CCCC2)n(C)n1 [Example 51, 5-[3-(4-Fluoro-phenyl)-5-methyl-isoxazol-4-ylmethoxy]-2-methyl-2H-pyrazole-3-carboxylic acid pyrrolidin-1-ylamide]
The Ki of the first is 1.7-fold higher: 19.3 nM for the first, 11.4 nM for the second. The second binds more tightly here.

`Cc1onc(-c2ccc(F)cc2)c1COc1cc(C(=O)NN2CCOCC2)n(C)n1` [Example 50, 5-[3-(4-Fluoro-phenyl)-5-methyl-isoxazol-4-ylmethoxy]-2-methyl-2H-pyrazole-3-carboxylic acid morpholin-4-ylamide] and `Cc1onc(-c2ccc(F)cc2)c1COc1cc(C(=O)NC2(C)COC2)n(C)n1` [Example 58, 5-[3-(4-Fluoro-phenyl)-5-methyl-isoxazol-4-ylmethoxy]-2-methyl-2H-pyrazole-3-carboxylic acid (3-methyl-oxetan-3-yl)-amide] are within 1.5-fold of each other in Ki: 3.5 nM for the first, 4.3 nM for the second.

Going from `Cc1onc(-c2ccc(F)cc2)c1COc1cc(C(=O)NC(C)C)n(C)n1` [Example 52, 5-[3-(4-Fluoro-phenyl)-5-methyl-isoxazol-4-ylmethoxy]-2-methyl-2H-pyrazole-3-carboxylic acid isopropylamide] to `Cc1onc(-c2ccc(F)cc2)c1COc1cc(C(N)=O)n(C)n1` [Example 54, 5-[3-(4-Fluoro-phenyl)-5-methyl-isoxazol-4-ylmethoxy]-2-methyl-2H-pyrazole-3-carboxylic acid amide], the Ki rises from 7.4 nM to 12 nM (1.6-fold). The first binds more tightly here.

First: Cc1onc(-c2ccc(F)cc2)c1COc1cc(C(=O)NC(C)(C)CO)n(C)n1 [Example 55, 5-[3-(4-Fluoro-phenyl)-5-methyl-isoxazol-4-ylmethoxy]-2-methyl-2H-pyrazole-3-carboxylic acid (2-hydroxy-1,1-dimethyl-ethyl)-amide]
Second: Cc1onc(-c2ccc(F)cc2)c1COc1cc(C(=O)NCC(C)(C)CO)n(C)n1 [Example 65, 5-[3-(4-Fluoro-phenyl)-5-methyl-isoxazol-4-ylmethoxy]-2-methyl-2H-pyrazole-3-carboxylic acid (3-hydroxy-2,2-dimethyl-propyl)-amide]
The Ki of the first is 5.1-fold higher: 29.6 nM for the first, 5.8 nM for the second. The second binds more tightly here.

`COCCNC(=O)c1cc(OCc2c(-c3ccc(F)cc3)noc2C)nn1C` [Example 60, 5-[3-(4-Fluoro-phenyl)-5-methyl-isoxazol-4-ylmethoxy]-2-methyl-2H-pyrazole-3-carboxylic acid (2-methoxy-ethyl)-amide] and `CC(=O)NCCNC(=O)c1cc(OCc2c(-c3ccc(F)cc3)noc2C)nn1C` [Example 64, 5-[3-(4-Fluoro-phenyl)-5-methyl-isoxazol-4-ylmethoxy]-2-methyl-2H-pyrazole-3-carboxylic acid (2-acetylamino-ethyl)-amide] are within 1.5-fold of each other in Ki: 13.2 nM for the first, 16.1 nM for the second.

`Cc1onc(-c2ccc(F)cc2)c1COc1cc(C(=O)NCC2(O)CC2)n(C)n1` [Example 61, 5-[3-(4-Fluoro-phenyl)-5-methyl-isoxazol-4-ylmethoxy]-2-methyl-2H-pyrazole-3-carboxylic acid (1-hydroxy-cyclopropylmethyl)-amide] and `Cc1onc(-c2ccc(F)cc2)c1COc1cc(C(=O)NCC(C)(C)O)n(C)n1` [Example 66, 5-[3-(4-Fluoro-phenyl)-5-methyl-isoxazol-4-ylmethoxy]-2-methyl-2H-pyrazole-3-carboxylic acid (2-hydroxy-2-methyl-propyl)-amide] are within 1.5-fold of each other in Ki: 7.4 nM for the first, 6.5 nM for the second.

`Cc1onc(-c2ccc(F)cc2)c1COc1cc(C(=O)Nc2ccn(C)n2)n(C)n1` [Example 63, 5-[3-(4-Fluoro-phenyl)-5-methyl-isoxazol-4-ylmethoxy]-2-methyl-2H-pyrazole-3-carboxylic acid (1-methyl-1H-pyrazol-3-yl)-amide] and `Cc1onc(-c2ccc(F)cc2)c1COc1cc(C(=O)N[C@H]2CCC[C@@H]2O)n(C)n1` [Example 73, (+5-[3-(4-Fluoro-phenyl)-5-methyl-isoxazol-4-ylmethoxy]-2-methyl-2H-pyrazole-3-carboxylic acid ((1R,2R)-2-hydroxy-cyclopentyl)-amideand/or 5-[3-(4-Fluoro-phenyl)-5-methyl-isoxazol-4-ylmethoxy]-2-methyl-2H-pyrazole-3-carboxylic acid ((18,28)-2-hydroxy-cyclopentyl)-amide] are within 1.5-fold of each other in Ki: 13.1 nM for the first, 9.4 nM for the second.

Going from `Cc1onc(-c2ccc(F)cc2)c1COc1cc(C(=O)N2CC(O)C2)n(C)n1` [Example 71, {5-[3-(4-Fluoro-phenyl)-5-methyl-isoxazol-4-ylmethoxy]-2-methyl-2H-pyrazol-3-yl}-(3-hydroxy-azetidin-1-yl)-methanone] to `Cc1onc(-c2ccc(F)cc2)c1COc1cc(C(=O)N2CC3(COC3)C2)n(C)n1` [Example 77, {5-[3-(4-Fluoro-phenyl)-5-methyl-isoxazol-4-ylmethoxy]-2-methyl-2H-pyrazol-3-yl}-(2-oxa-6-aza-spiro[3.3]hept-6-yl)-methanone], the Ki rises from 16.5 nM to 45.8 nM (2.8-fold). The first binds more tightly here.

Compared with `Cc1onc(-c2ccccn2)c1COc1cc(C(=O)NC(C)C)n(C)n1` [Example 78, 2-Methyl-5-(5-methyl-3-pyridin-2-yl-isoxazol-4-ylmethoxy)-2H-pyrazole-3-carboxylic acid isopropylamide], `Cc1onc(-c2ccccn2)c1COc1cc(C(=O)NC2CCOCC2)n(C)n1` [Example 79, 2-Methyl-5-(5-methyl-3-pyridin-2-yl-isoxazol-4-ylmethoxy)-2H-pyrazole-3-carboxylic acid (tetrahydro-pyran-4-yl)-amide] is 4.6-fold lower in Ki: 30.2 nM for the first, 6.5 nM for the second. The second binds more tightly here.

Source: patent US8163728B2, “Pyrazoles” (Hoffmann-La Roche Inc., priority 2009, dated 2012)
